Data as given in the supplement of paper PMC10307832.

Experiments:
Assay in all cases: relative viability (nuclei count vs DMSO), 5 days (fraction); higher = more cells survive
Erlotinib + Tozasertib = compound: C#Cc1cccc(Nc2ncnc3cc(OCCOC)c(OCCOC)cc23)c1 [Erlotinib] + Cc1cc(Nc2cc(N3CCN(C)CC3)nc(Sc3ccc(NC(=O)C4CC4)cc3)n2)n[nH]1 [Tozasertib] (partner 0.1 µM)
In short: (§1)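 Relative viability equals treated-well nuclei counts divided by vehicle-well nuclei counts. Counts came from 4× images of lung cancer cell lines grown in 1536-well plates for 5 days after pin-tool dosing on the day after seeding. Dosing used one drug alone or a fixed anchor-drug dose plus five library-drug doses (not always all listed) in √10 steps, and values are medians of duplicate plates.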

Erlotinib + Linsitinib = compound: C#Cc1cccc(Nc2ncnc3cc(OCCOC)c(OCCOC)cc23)c1 [Erlotinib] + C[C@]1(O)C[C@@H](c2nc(-c3ccc4ccc(-c5ccccc5)nc4c3)c3c(N)nccn32)C1 [Linsitinib] (partner 1 µM)
In short: as §1

Erlotinib + Trametinib = compound: C#Cc1cccc(Nc2ncnc3cc(OCCOC)c(OCCOC)cc23)c1 [Erlotinib] + CC(=O)Nc1cccc(-n2c(=O)n(C3CC3)c(=O)c3c(Nc4ccc(I)cc4F)n(C)c(=O)c(C)c32)c1 [Trametinib] (partner 0.02 µM)
In short: as §1

Erlotinib + Pictilisib = compound: C#Cc1cccc(Nc2ncnc3cc(OCCOC)c(OCCOC)cc23)c1 [Erlotinib] + CS(=O)(=O)N1CCN(Cc2cc3nc(-c4cccc5[nH]ncc45)nc(N4CCOCC4)c3s2)CC1 [Pictilisib] (partner 1 µM)
In short: as §1

Erlotinib + Olaparib = compound: C#Cc1cccc(Nc2ncnc3cc(OCCOC)c(OCCOC)cc23)c1 [Erlotinib] + O=C(c1cc(Cc2n[nH]c(=O)c3ccccc23)ccc1F)N1CCN(C(=O)C2CC2)CC1 [Olaparib] (partner 8 µM)
In short: as §1

Cell Line: HCC-78
- relative viability (Erlotinib + Tozasertib; first compound 0.02 µM): 0.407
- relative viability (Erlotinib + Tozasertib; first compound 0.2 µM): 0.289
- relative viability (Erlotinib + Tozasertib; first compound 0.6325 µM): 0.385
- relative viability (Erlotinib + Tozasertib; first compound 2 µM): 0.402
- relative viability (Erlotinib + Linsitinib; first compound 0.02 µM): 0.5
- relative viability (Erlotinib + Linsitinib; first compound 0.2 µM): 0.439
- relative viability (Erlotinib + Linsitinib; first compound 0.6325 µM): 0.401
- relative viability (Erlotinib + Linsitinib; first compound 2 µM): 0.383
- relative viability (Erlotinib + Trametinib; first compound 0.02 µM): 0.768
- relative viability (Erlotinib + Trametinib; first compound 0.2 µM): 0.524
- relative viability (Erlotinib + Trametinib; first compound 0.6325 µM): 0.683
- relative viability (Erlotinib + Trametinib; first compound 2 µM): 0.58
- relative viability (Erlotinib + Pictilisib; first compound 0.02 µM): 0.195
- relative viability (Erlotinib + Pictilisib; first compound 0.2 µM): 0.207
- relative viability (Erlotinib + Pictilisib; first compound 0.6325 µM): 0.218
- relative viability (Erlotinib + Pictilisib; first compound 2 µM): 0.21
- relative viability (Erlotinib + Olaparib; first compound 0.02 µM): 0.877
- relative viability (Erlotinib + Olaparib; first compound 0.2 µM): 0.634
- relative viability (Erlotinib + Olaparib; first compound 2 µM): 0.728

Cell Line: HCC-366
- relative viability (Erlotinib + Tozasertib; first compound 0.02 µM): 0.0918
- relative viability (Erlotinib + Tozasertib; first compound 0.2 µM): 0.0854
- relative viability (Erlotinib + Tozasertib; first compound 0.6325 µM): 0.0664
- relative viability (Erlotinib + Tozasertib; first compound 2 µM): 0.039
- relative viability (Erlotinib + Linsitinib; first compound 0.02 µM): 0.752
- relative viability (Erlotinib + Linsitinib; first compound 0.2 µM): 0.52
- relative viability (Erlotinib + Linsitinib; first compound 0.6325 µM): 0.574
- relative viability (Erlotinib + Linsitinib; first compound 2 µM): 0.564
- relative viability (Erlotinib + Trametinib; first compound 0.02 µM): 0.335
- relative viability (Erlotinib + Trametinib; first compound 0.2 µM): 0.294
- relative viability (Erlotinib + Trametinib; first compound 0.6325 µM): 0.277
- relative viability (Erlotinib + Trametinib; first compound 2 µM): 0.215
- relative viability (Erlotinib + Pictilisib; first compound 0.02 µM): 0.185
- relative viability (Erlotinib + Pictilisib; first compound 0.2 µM): 0.0789
- relative viability (Erlotinib + Pictilisib; first compound 0.6325 µM): 0.12
- relative viability (Erlotinib + Pictilisib; first compound 2 µM): 0.137
- relative viability (Erlotinib + Olaparib; first compound 0.02 µM): 0.331
- relative viability (Erlotinib + Olaparib; first compound 0.2 µM): 0.359
- relative viability (Erlotinib + Olaparib; first compound 0.6325 µM): 0.353
- relative viability (Erlotinib + Olaparib; first compound 2 µM): 0.242

Cell Line: HCC-827
- relative viability (Erlotinib + Tozasertib; first compound 0.02 µM): 0.223
- relative viability (Erlotinib + Tozasertib; first compound 0.2 µM): 0.114
- relative viability (Erlotinib + Tozasertib; first compound 0.6325 µM): 0.101
- relative viability (Erlotinib + Tozasertib; first compound 2 µM): 0.126
- relative viability (Erlotinib + Linsitinib; first compound 0.02 µM): 0.281
- relative viability (Erlotinib + Linsitinib; first compound 0.2 µM): 0.188
- relative viability (Erlotinib + Linsitinib; first compound 0.6325 µM): 0.173
- relative viability (Erlotinib + Linsitinib; first compound 2 µM): 0.166
- relative viability (Erlotinib + Trametinib; first compound 0.02 µM): 0.205
- relative viability (Erlotinib + Trametinib; first compound 0.2 µM): 0.159
- relative viability (Erlotinib + Trametinib; first compound 0.6325 µM): 0.148
- relative viability (Erlotinib + Trametinib; first compound 2 µM): 0.169
- relative viability (Erlotinib + Pictilisib; first compound 0.02 µM): 0.374
- relative viability (Erlotinib + Pictilisib; first compound 0.2 µM): 0.241
- relative viability (Erlotinib + Pictilisib; first compound 0.6325 µM): 0.273
- relative viability (Erlotinib + Pictilisib; first compound 2 µM): 0.329
- relative viability (Erlotinib + Olaparib; first compound 0.02 µM): 0.243
- relative viability (Erlotinib + Olaparib; first compound 0.2 µM): 0.147
- relative viability (Erlotinib + Olaparib; first compound 0.6325 µM): 0.149
- relative viability (Erlotinib + Olaparib; first compound 2 µM): 0.139

Cell Line: HOP-62
- relative viability (Erlotinib + Tozasertib; first compound 0.02 µM): 0.405
- relative viability (Erlotinib + Tozasertib; first compound 0.2 µM): 0.409
- relative viability (Erlotinib + Tozasertib; first compound 0.6325 µM): 0.411
- relative viability (Erlotinib + Tozasertib; first compound 2 µM): 0.26
- relative viability (Erlotinib + Linsitinib; first compound 0.02 µM): 1.14
- relative viability (Erlotinib + Linsitinib; first compound 0.2 µM): 0.959
- relative viability (Erlotinib + Linsitinib; first compound 0.6325 µM): 1.01
- relative viability (Erlotinib + Linsitinib; first compound 2 µM): 0.912
- relative viability (Erlotinib + Trametinib; first compound 0.02 µM): 0.35
- relative viability (Erlotinib + Trametinib; first compound 0.2 µM): 0.364
- relative viability (Erlotinib + Trametinib; first compound 0.6325 µM): 0.452
- relative viability (Erlotinib + Trametinib; first compound 2 µM): 0.36
- relative viability (Erlotinib + Pictilisib; first compound 0.02 µM): 1.08
- relative viability (Erlotinib + Pictilisib; first compound 0.2 µM): 0.725
- relative viability (Erlotinib + Pictilisib; first compound 0.6325 µM): 0.788
- relative viability (Erlotinib + Pictilisib; first compound 2 µM): 0.625
- relative viability (Erlotinib + Olaparib; first compound 0.02 µM): 0.446
- relative viability (Erlotinib + Olaparib; first compound 0.2 µM): 0.307
- relative viability (Erlotinib + Olaparib; first compound 0.6325 µM): 0.508
- relative viability (Erlotinib + Olaparib; first compound 2 µM): 0.415

Cell Line: IA-LM
- relative viability (Erlotinib + Linsitinib; first compound 0.02 µM): 0.62
- relative viability (Erlotinib + Linsitinib; first compound 0.2 µM): 0.578
- relative viability (Erlotinib + Linsitinib; first compound 0.6325 µM): 0.55
- relative viability (Erlotinib + Linsitinib; first compound 2 µM): 0.595
- relative viability (Erlotinib + Pictilisib; first compound 0.02 µM): 0.338
- relative viability (Erlotinib + Pictilisib; first compound 0.6325 µM): 0.348
- relative viability (Erlotinib + Pictilisib; first compound 2 µM): 0.13
- relative viability (Erlotinib + Olaparib; first compound 0.02 µM): 0.757
- relative viability (Erlotinib + Olaparib; first compound 2 µM): 0.905

Cell Line: LC-2-ad
- relative viability (Erlotinib + Tozasertib; first compound 0.02 µM): 0.484
- relative viability (Erlotinib + Tozasertib; first compound 0.2 µM): 0.383
- relative viability (Erlotinib + Tozasertib; first compound 0.6325 µM): 0.414
- relative viability (Erlotinib + Tozasertib; first compound 2 µM): 0.345
- relative viability (Erlotinib + Linsitinib; first compound 0.02 µM): 0.889
- relative viability (Erlotinib + Linsitinib; first compound 0.2 µM): 0.823
- relative viability (Erlotinib + Linsitinib; first compound 0.6325 µM): 0.76
- relative viability (Erlotinib + Linsitinib; first compound 2 µM): 0.611
- relative viability (Erlotinib + Trametinib; first compound 0.02 µM): 0.902
- relative viability (Erlotinib + Trametinib; first compound 0.2 µM): 0.907
- relative viability (Erlotinib + Trametinib; first compound 0.6325 µM): 0.87
- relative viability (Erlotinib + Trametinib; first compound 2 µM): 0.775
- relative viability (Erlotinib + Pictilisib; first compound 0.02 µM): 0.557
- relative viability (Erlotinib + Pictilisib; first compound 0.2 µM): 0.427
- relative viability (Erlotinib + Pictilisib; first compound 0.6325 µM): 0.429
- relative viability (Erlotinib + Pictilisib; first compound 2 µM): 0.303
- relative viability (Erlotinib + Olaparib; first compound 0.02 µM): 0.709
- relative viability (Erlotinib + Olaparib; first compound 0.2 µM): 0.785
- relative viability (Erlotinib + Olaparib; first compound 0.6325 µM): 0.692
- relative viability (Erlotinib + Olaparib; first compound 2 µM): 0.625

Cell Line: LCLC-97TM1
- relative viability (Erlotinib + Tozasertib; first compound 0.02 µM): 0.285
- relative viability (Erlotinib + Tozasertib; first compound 0.2 µM): 0.204
- relative viability (Erlotinib + Tozasertib; first compound 0.6325 µM): 0.203
- relative viability (Erlotinib + Tozasertib; first compound 2 µM): 0.172
- relative viability (Erlotinib + Linsitinib; first compound 0.02 µM): 0.212
- relative viability (Erlotinib + Linsitinib; first compound 0.6325 µM): 0.196
- relative viability (Erlotinib + Linsitinib; first compound 2 µM): 0.196
- relative viability (Erlotinib + Trametinib; first compound 0.02 µM): 0.197
- relative viability (Erlotinib + Trametinib; first compound 0.2 µM): 0.197
- relative viability (Erlotinib + Trametinib; first compound 0.6325 µM): 0.163
- relative viability (Erlotinib + Trametinib; first compound 2 µM): 0.168
- relative viability (Erlotinib + Pictilisib; first compound 0.02 µM): 0.171
- relative viability (Erlotinib + Pictilisib; first compound 0.6325 µM): 0.226
- relative viability (Erlotinib + Pictilisib; first compound 2 µM): 0.211
- relative viability (Erlotinib + Olaparib; first compound 0.02 µM): 0.45
- relative viability (Erlotinib + Olaparib; first compound 0.2 µM): 0.352
- relative viability (Erlotinib + Olaparib; first compound 0.6325 µM): 0.508
- relative viability (Erlotinib + Olaparib; first compound 2 µM): 0.321

Cell Line: LCLC-103H
- relative viability (Erlotinib + Tozasertib; first compound 0.02 µM): 0.434
- relative viability (Erlotinib + Tozasertib; first compound 0.2 µM): 0.48
- relative viability (Erlotinib + Tozasertib; first compound 0.6325 µM): 0.595
- relative viability (Erlotinib + Tozasertib; first compound 2 µM): 0.313
- relative viability (Erlotinib + Linsitinib; first compound 0.02 µM): 1.1
- relative viability (Erlotinib + Linsitinib; first compound 0.2 µM): 1.21
- relative viability (Erlotinib + Linsitinib; first compound 0.6325 µM): 1.15
- relative viability (Erlotinib + Linsitinib; first compound 2 µM): 1.01
- relative viability (Erlotinib + Trametinib; first compound 0.02 µM): 0.727
- relative viability (Erlotinib + Trametinib; first compound 0.2 µM): 0.636
- relative viability (Erlotinib + Trametinib; first compound 0.6325 µM): 0.661
- relative viability (Erlotinib + Trametinib; first compound 2 µM): 0.62
- relative viability (Erlotinib + Pictilisib; first compound 0.02 µM): 0.614
- relative viability (Erlotinib + Pictilisib; first compound 0.2 µM): 0.587
- relative viability (Erlotinib + Pictilisib; first compound 0.6325 µM): 0.753
- relative viability (Erlotinib + Pictilisib; first compound 2 µM): 0.538
- relative viability (Erlotinib + Olaparib; first compound 0.02 µM): 0.745
- relative viability (Erlotinib + Olaparib; first compound 0.2 µM): 0.75
- relative viability (Erlotinib + Olaparib; first compound 2 µM): 0.707

Cell Line: LK-2
- relative viability (Erlotinib + Tozasertib; first compound 0.02 µM): 0.196
- relative viability (Erlotinib + Tozasertib; first compound 0.2 µM): 0.17
- relative viability (Erlotinib + Tozasertib; first compound 0.6325 µM): 0.157
- relative viability (Erlotinib + Tozasertib; first compound 2 µM): 0.158
- relative viability (Erlotinib + Linsitinib; first compound 0.02 µM): 0.557
- relative viability (Erlotinib + Linsitinib; first compound 0.2 µM): 0.43
- relative viability (Erlotinib + Linsitinib; first compound 0.6325 µM): 0.869
- relative viability (Erlotinib + Linsitinib; first compound 2 µM): 0.377
- relative viability (Erlotinib + Trametinib; first compound 0.02 µM): 0.867
- relative viability (Erlotinib + Trametinib; first compound 0.2 µM): 0.543
- relative viability (Erlotinib + Trametinib; first compound 0.6325 µM): 0.842
- relative viability (Erlotinib + Trametinib; first compound 2 µM): 0.586
- relative viability (Erlotinib + Pictilisib; first compound 0.02 µM): 0.649
- relative viability (Erlotinib + Pictilisib; first compound 0.2 µM): 0.519
- relative viability (Erlotinib + Pictilisib; first compound 0.6325 µM): 0.735
- relative viability (Erlotinib + Pictilisib; first compound 2 µM): 0.599
- relative viability (Erlotinib + Olaparib; first compound 0.02 µM): 0.914
- relative viability (Erlotinib + Olaparib; first compound 0.2 µM): 0.706
- relative viability (Erlotinib + Olaparib; first compound 0.6325 µM): 0.804
- relative viability (Erlotinib + Olaparib; first compound 2 µM): 0.611
